Experimental findings from ChEMBL document CHEMBL4177745, “2-Methyltetrahydro-3-benzazepin-1-ols - The missing link in SAR of GluN2B selective NMDA receptor antagonists” (Bioorg Med Chem, 2018) are described below.

One may read the Ki as the equilibrium dissociation constant of an inhibitor or competing ligand from its target.

Test [1] concerns the target T1, Sigma intracellular receptor 2 (Rattus norvegicus, UniProt Q5U3Y7).
T1 sequence (Q5U3Y7 whole entry): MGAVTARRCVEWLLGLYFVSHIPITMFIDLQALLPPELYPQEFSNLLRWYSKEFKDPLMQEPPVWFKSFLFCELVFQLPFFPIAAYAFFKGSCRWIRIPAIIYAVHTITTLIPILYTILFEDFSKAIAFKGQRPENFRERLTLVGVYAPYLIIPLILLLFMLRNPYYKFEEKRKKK
Briefly: Displacement of [3H]-DTG from sigma 2 receptor in rat liver membranes after 120 mins by scintillation counting analysis. It counts as cell membranes, Membrane. For orientation: Displacement assays read how much labelled ligand stays bound in the presence of the test substance.

Test [2] is described as follows: Displacement of [3H]-ifenprodil from recombinant human GluN1a/GluN2B expressed in L(tk-) cell membranes after 120 mins by scintillation counting analysis.
Test [3] addresses Sigma non-opioid intracellular receptor 1 (Cavia porcellus, UniProt Q60492). Put plainly: Displacement of [3H]-(+)-Pentazocine from sigma 1 receptor in guinea pig brain cortex membranes after 120 mins by scintillation counting analysis. It counts as cell membranes.
Test [4] in a line: Selectivity ratio of Ki for recombinant human GluN1a/GluN2B expressed in L(tk-) cell membranes to Ki for sigma 1 receptor in guinea pig brain cortex membranes. In kind it is cell-based.

Chain of Sigma non-opioid intracellular receptor 1 (Q60492 whole entry): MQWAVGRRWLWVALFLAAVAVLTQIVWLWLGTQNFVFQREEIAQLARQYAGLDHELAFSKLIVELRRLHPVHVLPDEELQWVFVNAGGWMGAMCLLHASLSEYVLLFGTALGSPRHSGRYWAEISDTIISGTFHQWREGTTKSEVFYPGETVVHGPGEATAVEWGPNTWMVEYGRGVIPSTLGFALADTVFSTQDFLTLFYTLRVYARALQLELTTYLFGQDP

`Oc1ccc2c(c1)CCN(CCCCc1ccccc1)CC2O` (centres undefined): the inhibitory constant (Ki) in test [1] was greater than 10 µM; in test [2] it was 0.014 µM.
On to `OC1CN(CCCCc2ccccc2)CCc2ccccc21` (centres undefined), for which the inhibition constant Ki is 0.076 µM in test [1], 0.073 µM in test [2] and 0.676 µM in test [3].
As to `C[C@@H]1[C@H](O)c2ccc(O)cc2CCN1CCCCc1ccccc1`, the Ki in test [1] turned out to be 0.148 µM; in test [2], 0.017 µM.
With `C[C@@H]1[C@H](O)c2ccccc2CCN1CCCCc1ccccc1` (relative stereo), the Ki turned out to be 0.126 µM in test [1], 0.252 µM in test [2] and 0.046 µM in test [3]. Also, the Ratio Ki in test [4] was found to be 5.
`C[C@@H]1[C@H](O)c2ccccc2CCN1Cc1ccccc1` (relative stereo): the Ki amounted to 0.894 µM in test [1], 0.259 µM in test [2] and 0.261 µM in test [3].
With `C[C@@H]1[C@H](O)c2ccccc2CCN1CCCCCc1ccccc1` (relative stereo), the Ki came to 0.06 µM in test [1], 0.056 µM in test [2] and 0.01 µM in test [3]. Further, the Ratio Ki in test [4] was determined as 5.
On to `CC(C(O)c1ccc(O)cc1)N1CCC(Cc2ccccc2)CC1` (centres undefined) [IFENPRODIL], for which the Ki in test [2] was determined as 0.01 µM.
